test: Thermo Scientific Acclaim RSLC 120 C18, 100 × 2.1 mm, 2.2 µm, 30 °C, 0.2 to 0.48 mL/min, estimated dead time 1.1 min; A: 90% water + 10% methanol + 5 mM ammonium acetate; B: methanol + 5 mM ammonium acetate; gradient (min/%B) 0.1/1 3/39 14/99.9 16/99.9; conditions: stereoisomer not certain

Which LC retention time does the source give for `CCOC(=O)C1=CC(OC(CC)CC)C(NC(C)=O)C(N)C1` (stereo not given) here?
Its LC retention time is 8.79 min.

Which LC retention time does the source give for `Cc1cc(C)n(-c2nc3ccccc3[nH]2)n1` here?
The LC retention time was 8.22 min.

Which LC retention time does the source give for `COC(=O)NS(=O)(=O)c1ccc(N)cc1` here?
The LC retention time was 1.46 min.

Which LC retention time does the source give for `CC(C)N(C(=O)CS(=O)(=O)O)c1ccccc1` here?
Its LC retention time is 6.01 min.

With `CC1=C(C(=O)Nc2ccccc2)SCCO1` as the molecule, how does the LC retention time read?
Its LC retention time is 7.42 min.

With `CCC1(O)CCC2C3CCC4=CC(=O)CCC4C3CCC21C` (stereo not given) as the molecule, how does the LC retention time read?
The LC retention time was 14 min.

For `NCC(O)c1ccc(O)cc1` (stereo not given), which LC retention time is on record?
The LC retention time was 1.96 min.

With `COC(=O)c1ccccc1S(=O)(=O)NC(=O)Nc1nc(C)cc(C)n1` as the molecule, how does the LC retention time read?
The LC retention time was 5.03 min.

Which LC retention time does the source give for `O=C1CN=C(c2ccccc2)c2c(sc3c2CCCC3)N1` here?
Its LC retention time is 9.91 min.

Which LC retention time does the source give for `CC12CCC3c4ccc(O)cc4CCC3C1CCC2=O` (stereo not given) here?
Its LC retention time is 10.8 min.

Which LC retention time does the source give for `Nc1nc2c(ncn2CCC(CO)CO)c(=O)[nH]1` here?
The LC retention time was 3.34 min.

For `Cc1c(NC=O)c(=O)n(-c2ccccc2)n1C`, which LC retention time is on record?
Its LC retention time is 4.51 min.

Which LC retention time does the source give for `CC12CCC(=O)C=C1C(O)CC1C2CCC2(C)C(O)CCC12` (stereo not given) here?
The LC retention time was 6.61 min.

With `CC(C)NCC(O)c1ccc(NS(C)(=O)=O)cc1` (stereo not given) as the molecule, how does the LC retention time read?
The LC retention time was 3.91 min.

Which LC retention time does the source give for `O=C(O)c1ccccc1` here?
Its LC retention time is 2.88 min.

Which LC retention time does the source give for `CNC(=C[N+](=O)[O-])NCCS(=O)Cc1ccc(CN(C)C)o1` (stereo not given) here?
The LC retention time was 3.93 min.

For `CCCN(CCC)c1c([N+](=O)[O-])cc(S(N)(=O)=O)cc1[N+](=O)[O-]`, which LC retention time is on record?
The LC retention time was 10.2 min.

With `CCCCc1c(C)nc(NCC)nc1OS(=O)(=O)N(C)C` as the molecule, how does the LC retention time read?
Its LC retention time is 10.5 min.

Which LC retention time does the source give for `COC(=O)Nc1nc2ccccc2[nH]1` here?
The LC retention time was 5.8 min.

With `CCC(C)(CC)c1cc(NC(=O)c2c(OC)cccc2OC)on1` as the molecule, how does the LC retention time read?
The LC retention time was 9.39 min.

With `CSC1=NC(C)(c2ccccc2)C(=O)N1Nc1ccccc1` (stereo not given) as the molecule, how does the LC retention time read?
Its LC retention time is 9.18 min.

For `CC(C)Nc1nc(N)[nH]c(=O)n1`, which LC retention time is on record?
The LC retention time was 4.08 min.

With `COc1ccc2cc(C(C)C(=O)O)ccc2c1` (stereo not given) as the molecule, how does the LC retention time read?
Its LC retention time is 6.74 min.

Which LC retention time does the source give for `O=C(O)c1cccc(Oc2ccccc2)c1` here?
Its LC retention time is 7.77 min.

Which LC retention time does the source give for `CC12CCC(=O)C=C1CCC1C2C(O)CC2(C)C(C(=O)CO)CCC12` (stereo not given) here?
Its LC retention time is 9.91 min.

Which LC retention time does the source give for `Cc1cn(C2CC(N=[N+]=[N-])C(CO)O2)c(=O)[nH]c1=O` (stereo not given) here?
The LC retention time was 5.06 min.

For `O=C(Nc1ccccc1)Nc1cnns1`, which LC retention time is on record?
Its LC retention time is 7.12 min.

Which LC retention time does the source give for `CCC(=C(c1ccccc1)c1ccc(OCCN(C)C)cc1)c1ccc(OC)c(O)c1` here?
The LC retention time was 11.5 min.

With `NS(=O)(=O)c1ccccc1` as the molecule, how does the LC retention time read?
Its LC retention time is 3.92 min.

With `O=C1NC(=O)C(c2ccccc2)(c2ccccc2)N1` as the molecule, how does the LC retention time read?
The LC retention time was 8.26 min.

For `Cc1ccc(NC(=O)NC(C)(C)c2ccccc2)cc1`, which LC retention time is on record?
Its LC retention time is 9.64 min.

With `Oc1ccc(C=Cc2cc(O)cc(O)c2)cc1` as the molecule, how does the LC retention time read?
Its LC retention time is 6.82 min.

Which LC retention time does the source give for `O=C1NS(=O)(=O)c2ccccc21` here?
The LC retention time was 3.09 min.

Which LC retention time does the source give for `CC(C)(C)Nc1nc(N)[nH]c(=O)n1` here?
The LC retention time was 5.42 min.

For `CC(C)(C)CC(C)(C)c1ccc(O)cc1`, which LC retention time is on record?
Its LC retention time is 12.3 min.

Which LC retention time does the source give for `CCCNC(C)C(=O)Nc1ccccc1C` (stereo not given) here?
The LC retention time was 7.49 min.

For `COc1cc(OC)nc(NC(=O)NS(=O)(=O)c2ncccc2C(=O)N(C)C)n1`, which LC retention time is on record?
The LC retention time was 4.32 min.

Which LC retention time does the source give for `CCOc1nc2cccc(C(=O)O)c2n1Cc1ccc(-c2ccccc2-c2nn[nH]n2)cc1` here?
The LC retention time was 5.86 min.

Which LC retention time does the source give for `COC1CCC(OC2CC(C3OC(C)(O)C(C)CC3C)OC2C2(C)CCC(C3(C)CCC4(CC(O)C(C)C(C(C)C5OC(O)(CC(=O)O)C(C)C(O)C5OC)O4)O3)O2)OC1C` (stereo not given) here?
The LC retention time was 13.7 min.

With `CC(=O)Nc1ccc(S(=O)(=O)Nc2nc(C)cc(C)n2)cc1` as the molecule, how does the LC retention time read?
Its LC retention time is 5.06 min.

With `COc1ccc(CC(C)NCC(O)c2ccc(O)c(NC=O)c2)cc1` (stereo not given) as the molecule, how does the LC retention time read?
The LC retention time was 5.91 min.

Which LC retention time does the source give for `Cc1ccc(NS(=O)(=O)N(C)C)cc1` here?
The LC retention time was 7.23 min.

With `COC(=O)c1ccccc1CS(=O)(=O)NC(=O)Nc1nc(OC)cc(OC)n1` as the molecule, how does the LC retention time read?
Its LC retention time is 7.66 min.

With `CC12CCC3C(CC(O)C4=CC(=O)CCC43C)C1CCC2=O` (stereo not given) as the molecule, how does the LC retention time read?
Its LC retention time is 6.99 min.

With `Cc1cnc(NC(=O)C2=C(O)c3ccccc3S(=O)(=O)N2C)s1` as the molecule, how does the LC retention time read?
The LC retention time was 6.41 min.

Which LC retention time does the source give for `CCN1CCCC1CNC(=O)c1cc(S(=O)(=O)CC)c(N)cc1OC` (stereo not given) here?
The LC retention time was 5.08 min.

For `CC(=O)CC(c1ccccc1)c1c(O)c2ccccc2oc1=O` (stereo not given), which LC retention time is on record?
Its LC retention time is 6.56 min.

For `CC(Cc1ccc(O)cc1)NCC(O)c1cc(O)cc(O)c1` (stereo not given), which LC retention time is on record?
The LC retention time was 4.33 min.

With `C=C(C)C1CCC(C)=CC1c1c(O)cc(CCCCC)cc1O` (stereo not given) as the molecule, how does the LC retention time read?
Its LC retention time is 13.7 min.

For `CCOP(=S)(NC(C)CC)Oc1cc(C)ccc1[N+](=O)[O-]` (stereo not given), which LC retention time is on record?
The LC retention time was 11.2 min.

With `CSc1nc(N=[N+]=[N-])nc(NC(C)C)n1` as the molecule, how does the LC retention time read?
Its LC retention time is 9.67 min.

With `CC(C)CN(CC(O)C(Cc1ccccc1)NC(=O)OC1COC2OCCC12)S(=O)(=O)c1ccc(N)cc1` (stereo not given) as the molecule, how does the LC retention time read?
The LC retention time was 9.37 min.

Which LC retention time does the source give for `O=C(O)c1ccccc1S` here?
Its LC retention time is 5.44 min.

For `CCc1ccc(CCOc2ccc(CC3SC(=O)NC3=O)cc2)nc1` (stereo not given), which LC retention time is on record?
The LC retention time was 10.6 min.

With `CC1(C)SC2C(NC(=O)C(N)c3ccc(O)cc3)C(=O)N2C1C(=O)O` (stereo not given) as the molecule, how does the LC retention time read?
Its LC retention time is 3.68 min.

For `O=c1nccc[nH]1`, which LC retention time is on record?
The LC retention time was 5.01 min.

With `CCNc1nc(NC(C)C)[nH]c(=O)n1` as the molecule, how does the LC retention time read?
Its LC retention time is 6 min.

With `NCC1(CC(=O)O)CCCCC1` as the molecule, how does the LC retention time read?
The LC retention time was 4.08 min.

For `C=C(c1ccc(C(=O)O)cc1)c1cc2c(cc1C)C(C)(C)CCC2(C)C`, which LC retention time is on record?
The LC retention time was 14.1 min.

Which LC retention time does the source give for `CCCCCc1cc(O)c2c(c1)OC(C)(C)C1CCC(C(=O)O)=CC21` (stereo not given) here?
The LC retention time was 12 min.

For `CSc1nnc(C(C)(C)C)c(=O)[nH]1`, which LC retention time is on record?
Its LC retention time is 8.04 min.

With `CCCCNc1cc(C(=O)O)cc(S(N)(=O)=O)c1Oc1ccccc1` as the molecule, how does the LC retention time read?
The LC retention time was 6.73 min.

Which LC retention time does the source give for `CCCCC(=O)N(Cc1ccc(-c2ccccc2-c2nn[nH]n2)cc1)C(C(=O)O)C(C)C` (stereo not given) here?
Its LC retention time is 8.17 min.

For `Cc1ccccc1C(=O)Nc1cccc(OC(C)C)c1`, which LC retention time is on record?
The LC retention time was 9.58 min.

Which LC retention time does the source give for `Nc1nc2ccccc2[nH]1` here?
The LC retention time was 5.11 min.

With `CC(C)c1ccc(NC(N)=O)cc1` as the molecule, how does the LC retention time read?
The LC retention time was 8.81 min.

With `CCc1cccc(CC)c1N(COC)C(=O)C(=O)O` as the molecule, how does the LC retention time read?
Its LC retention time is 7.69 min.

With `CCc1cnc(C2=NC(C)(C(C)C)C(=O)N2)c(C(=O)O)c1` (stereo not given) as the molecule, how does the LC retention time read?
Its LC retention time is 4.32 min.

For `c1ccc2[nH]c(-c3cscn3)nc2c1`, which LC retention time is on record?
The LC retention time was 6.52 min.

With `CNC(=O)Oc1cccc2c1OC(C)(C)C2O` (stereo not given) as the molecule, how does the LC retention time read?
The LC retention time was 5.09 min.

With `CC[N+]1([O-])CCCC1CNC(=O)c1cc(S(=O)(=O)CC)c(N)cc1OC` (stereo not given) as the molecule, how does the LC retention time read?
Its LC retention time is 4.81 min.

Which LC retention time does the source give for `CCCc1nc2c(C)cc(-c3nc4ccccc4n3C)cc2n1Cc1ccc(-c2ccccc2C(=O)O)cc1` here?
Its LC retention time is 11.2 min.

With `CCC(C(=O)O)C1CCC(C)C(C(C)C(O)C(C)C(=O)C(CC)C2OC3(C=CC(O)C4(CCC(C)(C5CCC(O)(CC)C(C)O5)O4)O3)C(C)CC2C)O1` (stereo not given) as the molecule, how does the LC retention time read?
Its LC retention time is 14.7 min.

For `NS(=O)(=O)Cc1noc2ccccc12`, which LC retention time is on record?
Its LC retention time is 5.17 min.

Which LC retention time does the source give for `CC12CCC3c4ccc(O)cc4CCC3C1CC(O)C2O` (stereo not given) here?
The LC retention time was 7.82 min.

For `CNC(=O)N(C)c1nc2ccccc2s1`, which LC retention time is on record?
The LC retention time was 8.23 min.

For `CC(C)C(N)C(=O)OCC(CO)OCn1cnc2c(=O)[nH]c(N)nc21` (stereo not given), which LC retention time is on record?
Its LC retention time is 4.08 min.

With `CNC(=O)ON=C(C)C(C)S(C)(=O)=O` (stereo not given) as the molecule, how does the LC retention time read?
The LC retention time was 3.67 min.

With `CC1C=CC=CCCC=CC=CC=CC=CC(OC2OC(C)C(O)C(N)C2O)CC2OC(O)(CC(O)C(O)CCC(O)CC(O)CC(O)CC(=O)OC(C)C(C)C1O)CC(O)C2C(=O)O` (stereo not given) as the molecule, how does the LC retention time read?
Its LC retention time is 11.8 min.

For `CC(=O)Nc1ccc(S(=O)(=O)Nc2ncccn2)cc1`, which LC retention time is on record?
The LC retention time was 3.76 min.

— the RepoRT retention time repository
